# In US20230063230A1, “NURR1 RECEPTOR MODULATORS” (priority 2019, published 2023):
# Columns and labels:
# Nurr1 [1] = target: T1, Nurr1 (Homo sapiens, UniProt P43354); experiment: Binding SPR
# Nurr1 [2] = target: T1, Nurr1; experiment: Binding MST
# Vmat2 in MN9D = experiment: cells; format: cell-based; details: cpds tested at 10 μM, analogs of compound 87, read-out: qPCR MN9D Vmat2
# Nurr1 in MN9D = experiment: qPCR MN9D Nurr1; format: cell-based; details: cpds tested at 10 μM, analogs of compound 87
# T1 sequence (P43354 360-595 limits assumed): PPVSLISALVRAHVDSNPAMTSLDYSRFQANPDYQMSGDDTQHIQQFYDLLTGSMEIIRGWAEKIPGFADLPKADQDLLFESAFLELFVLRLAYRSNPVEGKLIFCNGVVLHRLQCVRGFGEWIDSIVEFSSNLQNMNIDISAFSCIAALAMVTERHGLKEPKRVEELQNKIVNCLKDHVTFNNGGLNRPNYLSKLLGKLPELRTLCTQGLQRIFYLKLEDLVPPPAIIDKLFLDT
Binding SPR (Nurr1 [1]; analogs of compound 87),Binding MST (Nurr1 [2]; analogs of compound 87),SMILES,also measured
+,+,"CCn1cc(C(C)(C)NC(=O)c2cc(Cl)cc(Cl)c2)nn1 [SP 65, 3,5-dichloro-N-(2-(1-ethyl-1H-1,2,3-triazol-4-yl)propan-2-yl)benzamide]",
+,+,"CC(C)(NC(=O)c1cc(Cl)cc(Cl)c1)c1cn(Cc2ccccc2)nn1 [SP 98, N-(2-(1-benzyl-1H-1,2,3-triazol-4-yl)propan-2-yl)-3,5-dichlorobenzamide]",
+,+,"CC(C)(NC(=O)c1cc(Cl)cc(Cl)c1)c1cn(CCc2ccccc2)nn1 [SP 99, 3,5-dichloro-N-(2-(1-phenethyl-1H-1,2,3-triazol-4-yl)propan-2-yl)benzamide]",
+,,"CC(C)(NC(=O)c1cc(Cl)cc(Cl)c1)c1cn(CCc2ccc(Cl)c(Cl)c2)nn1 [SP 100, 3,5-dichloro-N-(2-(1-(3,4-dichlorophenethyl)-1H-1,2,3-triazol-4-yl)propan-2-yl)benzamide]",
+,+,"CC(C)(NCc1cc(Cl)cc(Cl)c1)c1cn(CCc2ccc(Cl)c(Cl)c2)nn1 [SP 136, N-(3,5-dichlorobenzyl)-2-(1-(3,4-dichlorophenethyl)-1H-1,2,3-triazol-4-yl)propan-2-amine]",
+,+,"CC(C)(NC(=O)c1ccccc1)c1cn(CCc2ccc(Cl)c(Cl)c2)nn1 [SP 138, N-(2-(1-(3,4-dichlorophenethyl)-1H-1,2,3-triazol-4-yl)propan-2-yl)benzamide]",
+,,"CC(C)(NC(=O)c1cc(Cl)cc(Cl)c1)c1cn(CCc2ccc(Br)cc2)nn1 [SP 147, N-(2-(1-(4-bromophenethyl)-1H-1,2,3-triazol-4-yl)propan-2-yl)-3,5-dichlorobenzamide]",
+,+,"CC(C)(NC(=O)c1cc(Cl)cc(Cl)c1)c1cnn(CCN)c1 [SP 155, N-(2-(1-(2-aminoethyl)-1H-pyrazol-4-yl)propan-2-yl)-3,5-dichlorobenzamide]",
+,++,"CC(C)(NC(=O)c1cc(F)cc(F)c1)c1cn(CCS)nn1 [SP 158, 3,5-difluoro-N-(2-(1-(2-mercaptoethyl)-1H-1,2,3-triazol-4-yl)propan-2-yl)benzamide]",
,++,"C=CC(=O)n1cc(C(C)(C)NC(=O)c2cc(Cl)cc(Cl)c2)cn1 [SP 162, N-(2-(1-acryloyl-1H-pyrazol-4-yl)propan-2-yl)-3,5-dichlorobenzamide]",
,+,"COc1ccc(Cn2cc(C(C)(C)NC(=O)c3cc(Cl)cc(Cl)c3)nn2)cc1 [SP 178, 3,5-dichloro-N-(2-(1-(4-methoxybenzyl)-1H-1,2,3-triazol-4-yl)propan-2-yl)benzamide]",

# Further lines, the compound ahead of its results:
SMILES,Binding SPR (Nurr1 [1]; analogs of compound 87),Binding MST (Nurr1 [2]; analogs of compound 87),also measured
"CC(C)(NC(=O)c1cc(Cl)cc(Cl)c1)c1cn(CCC(=O)O)nn1 [GWL 2.129, 3-(4-(2-(3,5-dichlorobenzamido)propan-2-yl)-1H-1,2,3-triazol-1-yl)propanoic acid]",+,,
"CC(C)(NC(=O)c1cc(Cl)cc(Cl)c1)c1cn(CC(=O)O)nn1 [GWL 2.131, 2-(4-(2-(3,5-dichlorobenzamido)propan-2-yl)-1H-1,2,3-triazol-1-yl)acetic acid]",+,,
"CC(C)(NC(=O)c1cc(Cl)cc(Cl)c1)c1cn(CCC(N)=O)nn1 [GWL 2.154, N-(2-(1-(3-amino-3-oxopropyl)-1H-1,2,3-triazol-4-yl)propan-2-yl)-3,5-dichlorobenzamide]",+,,
"CC(C)(NC(=O)c1cc(Cl)cc(Cl)c1)c1cn(-c2ccoc2)nn1 [GWL 3.001, 3,5-dichloro-N-(2-(1-(furan-3-yl)-1H-1,2,3-triazol-4-yl)propan-2-yl)benzamide]",+,,
"CC(C)(NC(=O)c1cc(Cl)cc(Cl)c1)c1cn(CC(N)=O)nn1 [GWL 3.008, N-(2-(1-(2-amino-2-oxoethyl)-1H-1,2,3-triazol-4-yl)propan-2-yl)-3,5-dichlorobenzamide]",+,+,
"O=C(COc1ccc(Cl)c(Cl)c1)NCCc1ccc(O)c(O)c1 [SP 60, 2-(3,4-dichlorophenoxy)-N-(3,4-dihydroxyphenethyl)acetamide]",,,Binding MST (Nurr1 [2]; analogs of compound 85): +; Binding SPR (Nurr1 [1]; analogs of compound 85): +
"O=C(COc1ccc(Cl)c(Cl)c1)NCc1ccc(O)c(O)c1 [SP 95, 2-(3,4-dichlorophenoxy)-N-(3,4-dihydroxybenzyl)acetamide]",,,Binding MST (Nurr1 [2]; analogs of compound 85): +; Binding SPR (Nurr1 [1]; analogs of compound 85): +
"CC(C)(NC(=O)c1ccc(Cl)c(Cl)c1)c1cn(CCc2ccc(Cl)c(Cl)c2)nn1 [SP 146, 3,4-dichloro-N-(2-(1-(3,4-dichlorophenethyl)-1H-1,2,3-triazol-4-yl)propan-2-yl)benzamide]",,,Binding SPR (Nurr1 [1]; analogs of compound 85): +
"CC(=O)SCCn1cc(C(C)(C)NC(=O)c2cc(Cl)cc(Cl)c2)nn1 [SP 151, S-2-(4-(2-(3,5-dichlorobenzamido)propan-2-yl)-1H-1,2,3-triazol-1-yl)ethyl ethanethioate]",,,fold induction at 10 µM (Vmat2 in MN9D): > 1.5
"CC(C)(NC(=O)c1cc(Cl)cc(Cl)c1)c1cn(CCSC(=O)c2ccccc2)nn1 [SP 164, S-2-(4-(2-(3,5-dichlorobenzamido)propan-2-yl)-1H-1,2,3-triazol-1-yl)ethyl benzothioate]",+,,fold induction at 10 µM (Vmat2 in MN9D): > 4
"CC(C)(NC(=O)c1cc(Cl)cc(Cl)c1)c1cnn(COCC[Si](C)(C)C)c1 [SP 174, 3,5-dichloro-N-(2-(1-((2-(trimethylsilyl)ethoxy)methyl)-1H-pyrazol-4-yl)propan-2-yl)benzamide]",+,,fold induction at 10 µM (Nurr1 in MN9D): > 4
CSSCCn1cc(C(C)(C)NC(=O)c2cc(Cl)cc(NC(C)=O)c2)nn1 [SP 183],+,+,
"CC(=O)SCCn1cc(C(C)(C)NC(=O)c2cc(Cl)cc(Cl)c2)cn1 [SP 184, S-2-(4-(2-(3,5-dichlorobenzamido)propan-2-yl)-1H-pyrazol-1-yl)ethyl ethanethioate]",,,fold induction at 10 µM (Vmat2 in MN9D): > 1.5; fold induction at 10 µM (Nurr1 in MN9D): > 4
"COc1cc(OC)cc(C(=O)NC(C)(C)c2cn(CCS)nn2)c1 [SP 191, N-(2-(1-(2-mercaptoethyl)-1H-1,2,3-triazol-4-yl)propan-2-yl)-3,5-dimethoxybenzamide]",+,++,fold induction at 10 µM (Vmat2 in MN9D): > 1.5; fold induction at 10 µM (Nurr1 in MN9D): > 4
"COc1cc(OC)cc(C(=O)NC(C)(C)c2cn(CCSC(C)=O)nn2)c1 [SP 193, S-2-(4-(2-(3,5-dimethoxybenzamido)propan-2-yl)-1H-1,2,3-triazol-1-yl)ethyl ethanethioate]",,,fold induction at 10 µM (Vmat2 in MN9D): > 1.5
"CC(=O)SCCn1cc(C(C)(C)NC(=O)c2cnc3ccccc3c2)nn1 [SP 194, S-2-(4-(2-(quinoline-3-carboxamido)propan-2-yl)-1H-1,2,3-triazol-1-yl)ethyl ethanethioate]",,,fold induction at 10 µM (Vmat2 in MN9D): > 1.5; fold induction at 10 µM (Nurr1 in MN9D): > 4
"C=CC(=O)NNC(=O)COc1ccc(Cl)c(Cl)c1 [UNI6-001, N′-(2-(3,4-dichlorophenoxy)acetyl)acrylohydrazide]",,,Binding MST (Nurr1 [2]; analogs of compound 85): +
"C=CS(=O)(=O)NNC(=O)COc1ccc(Cl)c(Cl)c1 [UNI6-003, N′-(2-(3,4-dichlorophenoxy)acetyl)ethenesulfonohydrazide]",,,Binding MST (Nurr1 [2]; analogs of compound 85): +
